Reference: US6544789B1, “Phosphorus-controllable recombinant expression of polypeptides in plants” (Board of Trustees, Rutgers, The State University of New …, priority 2000, dated 2003)

Tests used:
APase promoter = assay: GUS expression in Pr-GUS transformants grown in sand culture (specificity of APase promoter induction); assay type: in vivo, Arabidopsis thaliana; design: key to relative GUS expression: “−” (lowest); “+/−,”; “+,”; “++,”; “+++” (highest); settings: for relative GUS expression: 100 μM, 14-day-old seedlings
Protocol: A screening method was developed to evaluate GUS expression levels in the various transformed lines: T2 seedlings were germinated in pots containing fine granules of washed sand (40-100 mesh Fisher Scientific, Pittsburgh, Pa.). To remove trace amounts of contaminating elements, the sand was previously washed by soaking it in 0.1 M HCl for 45 minutes and then washing it extensively with ddH2O until the sand mixture reached pH 6.5. Seedlings were grown in standard phosphorus medium for 14 days before transfer to phosphorus-deficient medium. GUS expression in plants subjected to phosphorus-deficient conditions for 14 days is shown in FIGS. 4A-4D (FIG. 4A—lateral root primordium with localized GUS expression, FIG. 4B—GUS expression in several cell layers of lateral root primordium; FIG. 4C—emerging lateral root meristem; FIG. 4D—lateral root meristems (LRM) and an apical root meristem (ARM)). Seedlings were also germinated in pots containing washed sand, and then fertilized using 0.25×Hoagland's medium with or without phosphorus (0.25 mM), and examined after 10 days. GUS expression in the roots of these seedlings (FIG. 4F) or in the whole seedlings (FIG. 4G—not starved; FIG. 4H—starved) is shown. Phosphorus starvation symptoms were evident 8 days after sowing. Plant expression was examined by staining with x-gluc (i.e., 5-bromo-4-chloro-3-indolyl β-D-glucuronide), as described below, to evaluate GUS expression.
GUS activity was determined according to the method of Jefferson et al., EMBO J. 6:3901-3907 (1987). After staining, tissue was fixed in 1.5% formaldehyde-4% acetic acid-30% ethanol for 30 minutes, dehydrated through a graded ethanol series (50, 95, 100% for 20 minutes at each step), incubated 2 hours at 100% ethanol, and rehydrated through a graded ethanol series (95 and 50%, for 20 minutes each step). Rehydrated tissues were stored in H2O.
Pr-GUS transformants, germinated and grown in sand culture, were used to test the specificity of APase promoter induction by either inducing nutritional deficiencies other than P-limitation or by using such known chemical inducers of gene expression as salicylic acid (Ward et al., Plant Cell 3:1085-1094 (1991)) and jasmonic acids (Staswick, et al., Plant Physiol 96:130-136 (1991), Creelman et al., New Phytol. 75:479-490 (1992)) (Tables 1 and 2). Seedlings were germinated in pots containing washed sand and fertilized with modified 0.25×Hoagland's medium optionally lacking nitrogen (N), potassium (K), or iron (Fe). Nitrogen-free Hoagland's medium was prepared by substituting K2HPO4 for (NH4)2SO4, CaSO4 for Ca(NO3)2 and K2SO4 for KNO3. Potassium-free Hoagland's medium was prepared by substituting NaNO3 for KNO3. Iron deficient medium was prepared by removing Fe-EDTA from the medium composition. Aqueous solutions of salicylic acid (SA), jasmonic acid (JA), and mannose were supplied to 14-day-old seedlings by spraying until solutions ran off the seedlings; approximately 20 ml of 2.5-fold concentrated solution was added to the sand at the same time.
Both chemical inducers were applied at concentrations capable of strongly inducing a variety of plant genes. These treatments were compared to the effects of P removal (Table 1, where “P” is phosphorus, N is nitrogen, K is potassium, and Fe is iron, “+” indicates presence and “−” indicates absence, and relative expression is indicated on a scale of “−” (lowest), “+/−,” “+,” “++,” to “+++” (highest)) or the addition of mannose (Table 2, where is indicated on a scale of “−” (lowest), “+/−,” “+,” “++,” to “+++” (highest)). Mannose is known to induce P deficiency in plant cells by virtue of its ability to bind cellular phosphates as mannose 6-phosphate (Watkins, et al., Plant Physiol. 97:139-146 (1987)), thereby acting as an agent that associates with a phosphorus compound. […] Seventeen days after sowing, the experiment was terminated.

acid phosphatase (APase) = assay: APase activity in growth medium of B. juncea plants (p-NPP substrate, 410 nm); assay type: in vivo, Brassica juncea; settings: after 6 days incubation
Protocol: Expression and secretion studies of B. juncea began with the germination of B. juncea seeds in Petri dishes on Gamborg's B-5 (Life Technologies, Gibco BRL, Grand Island, N.Y.) agar medium. Germinated seedlings were then transferred to 20 ml vials containing one-quarter-strength Hoagland's solution (Arnon et al., Soil Sci. 50:463-483 (1940)). Plants were grown in shaker-incubators (25 rpm), at 24° C. under a 16-hour photoperiod, with 150 mE/m^2/s illumination provided by a mixture of fluorescent and incandescent lamps. After 10 days, plants were transferred into 125 ml flasks with 120 ml of 0.25×Hoagland solution containing one of the following concentrations of phosphorus: 3 mM, 1 mM, 0.25 mM or 0.01 mM (i.e., phosphorus deficiency). In the low phosphorus medium, (NH4)2SO4 was substituted for NH4H2PO4. The volume of medium in each flask was adjusted daily to 120 ml and the exudate-containing media were sampled for APase activity.
Unconcentrated media samples were subjected to chromogenic determination at 410 nm. The activity of APase in the growth medium was determined using p-nitrophenyl-1-phosphate (p-NPP, Sigma Chemical Co., St. Louis, Mo.) as substrate and 50 mM Na-acetate buffer, pH 4.6, in a water bath at 37° C. (Ascencio, J., J. Plant Nutr. 20:9-26 (1997)). The reaction was stopped after 1 hour with a 1 M Na2CO3 solution and the yellow p-nitrophenol (PNP) was measured at 410 nm in a DU 640 Spectrophotometer (Beckman Instruments, Columbia, Md.). […] Thus, expression of the exuded A. thaliana APase was de-repressed by phosphorus starvation.

Row | SMILES | relative GUS expression (APase promoter; 1 day after treatment) | relative GUS expression (APase promoter; 3 days after treatment) | relative GUS expression (APase promoter; 5 days after treatment) | relative GUS expression (APase promoter; 7 days after treatment) | APase activity in exudate-containing medium (acid phosphatase (APase); 0.01 mM phosphorus) | APase activity in exudate-containing medium (acid phosphatase (APase); 0.25 mM phosphorus) | APase activity in exudate-containing medium (acid phosphatase (APase); 1 mM phosphorus) | APase activity in exudate-containing medium (acid phosphatase (APase); 3 mM phosphorus) | expression of GUS on addition of phosphorus to the medium (APase promoter; phosphorus-starved plants)
1 | CC/C=C\C[C@H]1C(=O)CC[C@@H]1CC(=O)O [jasmonic acid] | − | − | − | − |  |  |  |  | 
2 | O=C(O)c1ccccc1O [salicylic acid] | − | + | − | +/− |  |  |  |  | 
3 | [P] [phosphorus] |  |  |  |  | ~0.33 A410/(ml-hour) | ~0.21 A410/(ml-hour) | ~0.09 A410/(ml-hour) | approximately 0.04 A410/(ml-hour) | diminished
